Results on ten compounds are retold here after patent US7718406B2, “Substrates for TAFI (A)” (DSM IP Assets B.V., priority 2002, dated 2010).

One assay has as its target T1, carboxypeptidase B (Homo sapiens, UniProt P15086).
T1 sequence (P15086 111-417): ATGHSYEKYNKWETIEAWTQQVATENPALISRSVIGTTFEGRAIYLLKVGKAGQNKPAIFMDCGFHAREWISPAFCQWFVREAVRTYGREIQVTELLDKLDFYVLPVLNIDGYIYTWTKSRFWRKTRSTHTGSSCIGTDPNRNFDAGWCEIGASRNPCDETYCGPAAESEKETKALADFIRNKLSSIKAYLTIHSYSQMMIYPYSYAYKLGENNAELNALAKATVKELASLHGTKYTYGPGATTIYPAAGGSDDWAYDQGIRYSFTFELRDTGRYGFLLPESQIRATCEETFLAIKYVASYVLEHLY
In words: Splitting of thiaarginine and thialysine substrates by carboxypeptidase B. Type of assay: biochemical. Conditions: substrate final concentration 174 μM. The procedure:
[drawing 2] have been described as substrates for carboxypeptidase B (Bull. Korean. Chem. Soc. 1998, 19(2), 189-193). […] Detection of CPB by means of compound A is carried out according to the following Scheme 1.
(§1) • measure for 10 min at RT Results: • Splitting of thiaarginine and thialysine substrates (final concentration 174 μM) by TAFIa (final concentration 17 μg/ml) • in brackets the value for carboxypeptidase B • Substances of comparison A and B from Bull. Korean. Chem. Soc. 1998, 19(2), 189-193 • ΔE=Extinction variation at 405 nm

For the next assay, the target named is T2, TAFIa (Homo sapiens, UniProt Q96IY4).
T2 construct: purchased Enzyme Research Laboratory
T2 sequence (Q96IY4 115-423): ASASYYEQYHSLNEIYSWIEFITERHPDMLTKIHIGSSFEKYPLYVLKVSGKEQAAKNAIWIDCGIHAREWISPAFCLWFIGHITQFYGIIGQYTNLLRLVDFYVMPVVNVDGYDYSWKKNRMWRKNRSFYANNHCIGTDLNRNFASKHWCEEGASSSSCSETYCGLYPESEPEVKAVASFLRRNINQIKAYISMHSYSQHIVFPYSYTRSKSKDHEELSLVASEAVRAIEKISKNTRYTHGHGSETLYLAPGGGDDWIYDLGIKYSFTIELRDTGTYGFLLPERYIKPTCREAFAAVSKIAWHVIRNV
In words: Splitting of thiaarginine and thialysine substrates by TAFIa (Ellman's reagent, absorption at 405-412 nm). Format: biochemical. Conditions: substrate final concentration 174 μM; TAFIa final concentration 17 μg/ml; RT, 10 min; pH 7.4. The procedure: Principle: TAFIa is determined as shown in Scheme 1. In a first step, the substrate is hydrolyzed by TAFIa in such a way that a thioamino acid (thiaarginine or thialysine) is released. These instable intermediates are rapidly decomposed into 2-mercaptoethylguanidine or 3-mercaptopropylamine, respectively. These mercapto compounds react with Ellman's reagent (5,5′-dithio-bis-(2-nitrobenzoic acid)), thereby releasing the strongly yellow 3-carboxy-4-nitrothiophenol that can be measured using a spectrophotometer at 405-412 nm. The free thiol content measured is directly proportional to the quantity of substrate hydrolyzed by TAFIa and thereby allows a quantitative analysis of the enzyme activity.
Enzyme assay: The enzyme activity is measured at room temperature by using a 10 mM substrate stock solution in DMSO. TAFI of human origin can be obtained in a stock solution of 360 μg/ml from Enzyme Research Laboratory or over blood plasma. Activation of TAFI to TAFIa occurred with thrombin (2.7 U/ml), the activation of which was produced with 30 μg of thrombomodulin. Excessive thrombin activity was eliminated by adding the synthetic inhibitor NAPAP. The measurement was performed on microtiter plates.
The absorption increase at 405-412 nm was recorded for 10 minutes.
in buffer (20 mM HEPES, 5 mM CaCl2, 0.01% Tween 80; pH 7.4) • incubate for 5 min at 25° C. Measurement:
as §1

In the case of Boc-F-K(Boc)-G(GUS)-OH × HCl [No. 4298], the “ΔE/min (extinction variation at 405 nm), value in brackets for carboxypeptidase B” value (from here on “ΔE/min … for carboxypeptidase B”) on carboxypeptidase B is given as “(0.034) ΔE/min”. On TAFIa, the “ΔE/min (extinction variation at 405 nm), splitting by TAFIa” value (“ΔE/min … by TAFIa” below) is reported as 0.043 ΔE/min. The matching figures for `Cl.N=C(N)NCCSC(NC(=O)[C@H](CCCCNC(=O)OCc1ccccc1)NC(=O)c1ccccc1)C(=O)O` (stereo partly drawn) [No. 4269, benzoyl-(L)-lysyl-(ε-benzyloxycarbonyl)-α-(D,L)-(2-guanidinoethylthio)-glycine hydrochloride salt]: “(0.018) ΔE/min” and 0.108 ΔE/min. As to Bz-V-G(GUS)-OH × TFA [No. 4334], the “ΔE/min … by TAFIa” value on TAFIa is listed as 0.034 ΔE/min. Turning to Boc-K(Z)-G(α-SPrA)-OH × TFA [No. 4341], the “ΔE/min … by TAFIa” value at TAFIa is 0.054 ΔE/min. On the same count and under the same terms, the figure for `NCCCSC(NC(=O)[C@H](CCCCNC(=O)OCc1ccccc1)NC(=O)c1ccccc1)C(=O)O.O=C(O)C(F)(F)F` (stereo partly drawn) [No. 4339, benzoyl-(L)-lysyl-(ε-benzyloxycarbonyl)-α-(D,L)-(3-aminopropylthio)-glycine trifluoracetic acid salt] is 0.055 ΔE/min. As to Bz-V-G(α-SPrA)-OH × TFA [No. 4336], the “ΔE/min … by TAFIa” value at TAFIa was 0.053 ΔE/min. Regarding Boc-K(Z)-G(GUS)-OH × TFA [No. 4275], at carboxypeptidase B, the “ΔE/min … for carboxypeptidase B” value is recorded as “(0.028) ΔE/min”. At TAFIa, the “ΔE/min … by TAFIa” value is given as 0.041 ΔE/min. In the same order, the values of Z-A-K(Boc)-G(GUS)-OH × HCl [No. 4302] are “(0.059) ΔE/min” and 0.042 ΔE/min. In the same order, the values of Boc-K(Tos)-G(GUS)-OH × HCl [No. 4273] are “(0.048) ΔE/min” and 0.014 ΔE/min. With Bz-P-K(Boc)-G(GUS)-OH × TFA [No. 4300], the “ΔE/min … for carboxypeptidase B” value on carboxypeptidase B is listed as “(0.072) ΔE/min”. The “ΔE/min … by TAFIa” value on TAFIa is listed as 0.012 ΔE/min.
